From patent publication US20250186369A1, “COMPOUNDS, COMPOSITIONS, AND METHODS FOR TREATING, AMELIORATING, AND/OR PRVENTING COCAINE USE DISORDER” (Drexel University, priority 2022, published 2025)

Tests used:
[1] = target: T1, D3 receptor (Homo sapiens, UniProt P35462); experiment: ERK1/2 MAPK activation assay (phosphorylation immunoblot), D3 receptor; type: cell-based; settings: 1 μM, 2 min, CHO-D3R (or HEK-D3R) cells
T1 construct: expressed in transfected cells; host or cells: CHO-D3R (or HEK-D3R) cells
Method: (§1) Selected compounds of the disclosure, as well as dopamine (DA) and PD128907 [a commercially available dopamine D2/D3 agonist; (4aR,10bR)-3,4a,4,10b-tetrahydro-4-propyl-2H,5H-[1]benzopyrano-[4,3-b]-1,4-oxazin-9-ol], were tested in an established ERK1/2 MAPK activation assay for dopamine D2 or D3 agonist activity. The results of these side-by-side tests, comprising immunoblot analysis of phosphorylated ERKT/2 MAPK, are illustrated in FIGS. 9-10.
(§2) Functional screening was conducted with vehicle or test compounds using ERK1/2 phosphorylation as endpoint as described herein. 0.4×10^6 CHO-D3R (or HEK-D3R) and CHO-D2R (or HEK-D2R) cells were seeded in 6-well plates and cultured in 3 ml DMEM complete growth medium for 48 h. […]
(§3) Cell lysates were assayed or protein content with DC Protein Assay Kit II (Bio-Rad). […] Total p44/42 MAPK levels in the same blots were also determined with rabbit anti-p44/42 MAPK monoclonal or polyclonal antibody (1:5000, Cell Signaling Technology) after stripping the blots of the same PVDF membrance. Chemiluminescence detection was performed using the SuperSignal West Dura Extended Duration Substrate detection kit (Thermo Scientific, Rockford, IL) and phosphorylated or total ERK1/2 MAPK immunoblots were quantified by densitometry with ImageQuant LAS4000 (GE Healthcare Bio-Sciences, Pittsburgh, PA). […]

[2] = target: T2, D2 receptor (Homo sapiens, UniProt P14416); experiment: ERK1/2 MAPK activation assay (phosphorylation immunoblot), D2 receptor; type: cell-based; settings: 1 μM, 2 min, CHO-D2R (or HEK-D2R) cells
T2 construct: expressed in transfected cells; host or cells: CHO-D2R (or HEK-D2R) cells
Method: as §1, §2, §3

[3] = Self-administration of PRX or SK609 on fixed ratio 1 schedule before and after cocaine (FIG. 7)
Method: FIG. 7A: Rats were implanted with jugular catheters and then allowed to self-administer either pramipexole (PRX; 0.25 mg/kg) or SK609 (609; 4 mg/kg) on a 6-hr, fixed ratio 1 schedule of reinforcement (Pre-Cocaine; left gray shading). After 10 days of PRX or SK609 access, rats were switched to cocaine (0.75 mg/kg). Once rats acquired cocaine self-administration behavior (defined as 20 injections of cocaine within a single 6-session) they were allowed another two days of cocaine access (Cocaine; blue shading). Only the last 3 days of cocaine self-administration are plotted. After cocaine self-administration, rats were switched back to PRX and SK609 to assess if these compounds would now maintain reinforced responding (Post-Cocaine; right gray shading). […] Data are mean±s.e.m. Student's t-test. *p<0.05.
After 10 days of PRX or SK609 access, rats were switched to cocaine (0.75 mg/kg). Once rats acquired cocaine self-administration behavior (defined as 20 injections of cocaine within a single 6-session) they were allowed another two days of cocaine access (Cocaine; blue shading). Only the last 3 days of cocaine self-administration are plotted. After cocaine self-administration, rats were switched back to PRX and SK609 to assess if these compounds would now maintain reinforced responding (Post-Cocaine; right gray shading).
Data are mean±s.e.m. Student's t-test. *p<0.05.

[4] = in vivo; cited from earlier work
[5] = system: pDAT; experiment: Time course densitometry of pDAT levels in SH-SY5Y-D3R cells; type: cell-based; settings: PRX 5 nM, SK608 1 μM, SK609 1 μM; for pDAT levels, combined with / post cocaine (CC): FIG. 5B, cocaine 1 μM
Method: FIGS. 5A-5B illustrate that SK609 and its analogues reduce pDAT levels when pretreated with cocaine in a time dependent manner. Time course densitometry analysis of the effects of cocaine (1 μM), PRX (5 nM), SK608 (1 μM), and SK609 (1 μM) on pDAT levels in SH-SY5Y-D3R cells. Different groups of cells were pre-treated with (FIG. 5A) CC, PRX, SK609 and SK608 or (FIG. 5B) CC, CC/PRX, CC/SK609 and CC/SK608 and were collected at the time points indicated. pDAT levels were measured and GAPDH was used as loading control. Data are presented as mean±sd from three independent experiments performed in triplicate.

[6] = system: dopamine transporter (DAT); experiment: Fast scan cyclic voltammetry of dopamine release and uptake in nucleus accumbens core tissue after i.p. dosing; type: in vivo, rats; settings: for dopamine release at baseline: FIG. 8B; for dopamine release at baseline / dopamine uptake at baseline: naive rats, i.p. 30 min prior to sacrifice, PRX 0.25 mg/kg, SK608 4 mg/kg, SK609 4 mg/kg, vs saline; for dopamine uptake at baseline: FIG. 8C; for dopamine release after bath-applied cocaine: FIG. 8D; for dopamine release after bath-applied cocaine / inhibition of dopamine uptake by cocaine: same dosing, cocaine bath applied to tissue; for inhibition of dopamine uptake by cocaine: FIG. 8E
Method: (§4) (FIG. 3A) DA release, (FIG. 3B) DA uptake (Vmax), and (FIG. 3C) DAT sensitivity to cocaine (inhibition of DA uptake; app Km) following vehicle (Veh) or 4 mg/kg SK609.
(§5) Naive rats were injected intraperitoneally with saline (SAL), pramipexole (PRX; 0.25 mg/kg), SK608 (608; 4 mg/kg), or SK609 (609; 4 mg/kg) 30 min prior to sacrifice. […] (FIG. 8A) Example dopamine traces, (FIG. 8B) dopamine release and (FIG. 8C) dopamine uptake at baseline, (FIG. 8D) dopamine release and (FIG. 8E) inhibition of dopamine uptake. Data are mean±s.e.m.
as §4
as §5, with “mean s.e.m.” for “mean±s.e.m.”

[7] = Cocaine self-administration on Progressive Ratio (PR) schedule, motivation for cocaine; type: in vivo, rodent; settings: i.p. 2 mg/kg or 4 mg/kg SK609
Method: FIGS. 2A-2B illustrate that SK609 reduces motivation for cocaine in a rodent self-administration model. […] (FIG. 2A) Breakpoints and (FIG. 2B) lever presses following i.p. vehicle, 2 mg/kg or 4 mg/kg SK609. Data are expressed as the mean±s.e.m., percent of baseline responding. *P<0.05.
(FIG. 2A) Breakpoints and (FIG. 2B) lever presses following i.p. vehicle, 2 mg/kg or 4 mg/kg SK609. Data are expressed as the mean±s.e.m., percent of baseline responding. *P<0.05.

[8] = SK609 self-administration in rats (FIG. 1); type: in vivo; settings: rats given access to 4 mg/kg SK609; comparison 0.75 mg/kg cocaine
Method: (§6) Shown are injections taken for rats given access to 4 mg/kg SK609 and 0.75 mg/kg cocaine. Dashed line represents acquisition criteria which required 4 consecutive days of 10 injections per session. Cocaine data are aligned to the first day in which rats met acquisition criteria. Data represent mean±s.e.m. *p<0.05, ***p<0.001.
as §6, with “Shown in FIG. 1” for “Shown”, “mean s.e.m.” for “mean±s.e.m.”

[9] = system: pDAT; experiment: Western blot / densitometry of pDAT in striatal synaptosomes of cocaine-treated rats; type: in vivo; settings: cocaine 15 mg/kg pre-treatment, SK609 4 mg/kg
Method: (FIG. 4A) Representative western blots for pDAT, tDAT, D3R, βarr2 and GAPDH on striatal synaptosomes derived from rats treated with either saline (sal) or cocaine (CC) (15 mg/kg) or SK609 (4 mg/kg) or Pramipexole (PRX; (S)-N^6-propyl-4,5,6,7-tetrahydro-1,3-benzothiazole-2,6-diamine) (0.25 mg/kg) with and without cocaine pre-treatment. […] (FIG. 4B) Densitometry analysis of pDAT expression. Data are presented as mean s.e.m. from 3 independent experiments from n=3 rats/group. *p<0.05, **p<0.001.
(FIG. 4A) Representative western blots for pDAT, tDAT, D3βarr2 and GAPDH on striatal synaptosomes derived from rats treated with either saline (sal) or cocaine (CC) (15 mg/kg) or SK609 (4 mg/kg) or Pramipexole (PRX) (0.25 mg/kg) with and without cocaine pre-treatment. (FIG. 4B) Densitometry analysis of pDAT expression. Data are presented as mean±s.e.m. from 3 independent experiments from n=3 rats/group. *p<0.05, **p<0.001.

T2 sequence (P14416 whole entry): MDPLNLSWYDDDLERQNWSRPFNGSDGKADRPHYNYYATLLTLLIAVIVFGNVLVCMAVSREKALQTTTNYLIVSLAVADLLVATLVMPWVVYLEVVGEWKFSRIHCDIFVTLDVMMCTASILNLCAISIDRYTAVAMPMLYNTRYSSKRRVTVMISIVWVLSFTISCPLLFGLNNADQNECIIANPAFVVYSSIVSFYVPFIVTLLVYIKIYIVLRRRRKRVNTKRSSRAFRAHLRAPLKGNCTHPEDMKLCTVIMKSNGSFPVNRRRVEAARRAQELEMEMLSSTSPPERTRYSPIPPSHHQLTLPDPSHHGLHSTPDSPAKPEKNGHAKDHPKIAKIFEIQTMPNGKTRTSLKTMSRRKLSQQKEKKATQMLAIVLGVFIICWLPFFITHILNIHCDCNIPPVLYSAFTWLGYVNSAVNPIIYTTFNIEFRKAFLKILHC
T1 sequence (P35462 whole entry): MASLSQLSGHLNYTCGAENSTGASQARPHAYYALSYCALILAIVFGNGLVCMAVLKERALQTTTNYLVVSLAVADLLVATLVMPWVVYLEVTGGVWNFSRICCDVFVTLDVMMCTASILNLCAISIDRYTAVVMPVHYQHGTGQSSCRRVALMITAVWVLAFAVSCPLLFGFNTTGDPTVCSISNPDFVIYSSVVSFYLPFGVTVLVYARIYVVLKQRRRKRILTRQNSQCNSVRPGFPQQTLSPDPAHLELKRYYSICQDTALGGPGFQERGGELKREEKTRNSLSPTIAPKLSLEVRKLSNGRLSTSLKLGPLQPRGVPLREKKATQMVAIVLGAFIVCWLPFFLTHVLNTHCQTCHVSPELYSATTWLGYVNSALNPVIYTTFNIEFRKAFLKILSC

| SMILES | ERK1/2 phosphorylation induced by activation of D3 receptor [1] | ERK1/2 phosphorylation induced by activation of D2 receptor [2] | overall intake, post-cocaine ([3]; rat, in vivo) | cumulative intake, pre-cocaine ([3]; rat, in vivo, 10 days) | compulsive drug seeking behavior [4] | pDAT levels, compound on its own ([5]; FIG. 5A) | pDAT levels, combined with / post cocaine (CC) [5] | dopamine release at baseline [6] | dopamine uptake at baseline [6] | dopamine release after bath-applied cocaine [6] | inhibition of dopamine uptake by cocaine [6] | acquisition of self-administration of the compound (reinforcing effect) ([3]; FIG. 7A, 6-hr fixed ratio 1, PRX 0.25 mg/kg, SK609 4 mg/kg) | motivation for cocaine (breakpoints, lever presses) [7] | self-administration (injections taken) [8] | pDAT expression in striatal synaptosomes [9] | DA release ([6]; FIG. 3A, 4 mg/kg SK609 vs vehicle) | DA uptake (Vmax) ([6]; FIG. 3B, 4 mg/kg SK609 vs vehicle) |
| --- | --- | --- | --- | --- | --- | --- | --- | --- | --- | --- | --- | --- | --- | --- | --- | --- | --- |
| CCCN1CCO[C@@H]2c3cc(O)ccc3OC[C@H]21 [PD128609, (4aR,10bR)-3,4a,4,10b-tetrahydro-4-propyl-2H,5H-[1]benzopyrano-[4,3-b]-1,4-oxazin-9-ol] | activated both D2 and D3 receptors | activated both D2 and D3 receptors |  |  |  |  |  |  |  |  |  |  |  |  |  |  |  |
| CCCN[C@H]1CCc2nc(N)sc2C1 [PRX, (S)-N^6-propyl-4,5,6,7-tetrahydro-1,3-benzothiazole-2,6-diamine, reference compound] |  |  | sustained higher overall PRX intake compared to SK609 | higher cumulative intake of PRX compared to SK609 | producing compulsive drug seeking behavior | significant increase in pDAT levels | significant increase in pDAT levels | no effect on DA release or uptake | no effect on DA release or uptake | had no effect | had no effect |  |  |  |  |  |  |
| CC(N)CCc1ccc(Cl)cc1 (stereo not drawn) [SK608, 4-(4-chlorophenyl)-butan-2-amine] |  |  |  |  |  |  | significantly reduced pDAT levels | reduce DA release and uptake | reduce DA release and uptake | significantly reduced DA release and uptake inhibition by cocaine | significantly reduced DA release and uptake inhibition by cocaine |  |  |  |  |  |  |
| CC(N)CCc1ccccc1Cl (stereo not drawn) [SK609, 4-(2-chlorophenyl)-butan-2-amine] |  |  |  |  |  |  | significantly reduced pDAT levels | reduce DA release and uptake | reduce DA release and uptake | significantly reduced DA release and uptake inhibition by cocaine | significantly reduced DA release and uptake inhibition by cocaine | not robust reinforcers | reduced motivation for cocaine | does not support self-administration | reduces expression of pDAT | disrupts dopamine (DA) release and uptake | disrupts dopamine (DA) release and uptake |
